Read-outs that look alike come from different tables or passages of the source.

The source of these data is patent US7820839B2, “Taxoid-fatty acid conjugates and pharmaceutical compositions thereof” (The Research Foundation of State University of New York, priority 2003, dated 2010).

Data set [1] relates to pgp+ human colon tumor xenograft, DLD-1. Conditions: for Days to 600 mm^3 Median / Growth Delay / Toxicity: number of animals who either died or lost greater than 20% body weight: SCID mice; for Days to 600 mm^3 Median / Growth Delay / Toxicity: number of animals who either died or lost greater than 20% body weight / Tumor free mice/Group: DLD-1; for Tumor free mice/Group: tumors less than 600 mm^3 on day 201. On the procedure: (§1) Female severe combined immune deficient, (SCID) mice aged six to eight weeks were obtained from either the in-house breeding facility at Roswell Park Cancer Institute or Taconic (Germantown, N.Y.). All aspects of animal care complied with the Institutional Animal Care and Use Committee guidelines. […] Tumors were initiated by implantation of approximately 50 mg of non-necrotic tumor fragments on the right flank using a 12-guage trocar needle. Chemotherapy was started when the tumor was established as a palpable mass, (approximately 50-100 mm^3 size). Therapy consisted of i.v. injections through the tail vein, given four times, three days apart. Each drug treatment group or drug free vehicle consisted of 4-5 mice per group, untreated controls contained 10 mice per group.
(§2) These were used for comparison purposes. DHA-taxoids and other omega-3 fatty acid-taxoids were prepared as a 30 mg/mL stock solution in equal parts of Tween 80 (polyoxyethylene-sorbitan monooleate; purchased from Sigma Chemical Company) and absolute ethanol. To stablize the formulation of the DHA-taxoids and other omega-3 fatty acid-taxoids, antioxidants, L-ascorbic acid (3.9 mM) and α-tocopherol (2.0 mM), were added. Each stock solution was further diluted before use in 0.9% NaCl (saline) so that the appropriate concentration of each drug could be injected i.v. via the tail vein, in a volume of approximately 0.4 mL for a 20 g mouse. Each drug was administered once a day on […].
(§3) For each animal, the tumor length (1) and width (w), each in mm, were measured using electronic calipers and recorded every 3-4 days. Tumor volume (v), in mm^3, was calculated using the formula: v=0.4(l×w^2). The time in days to the pre-determined target tumor volume of 600 mm^3 was linearly interpolated from a plot of log(volume) versus time. Statistically significant differences in tumor volumes between control and drug-treated mice were determined by the Cox-Mantel test. […] All statistical tests were two-sided.

The test system of data set [2] is human ovarian tumor xenograft (pgp−) A121. Nature of the data set: In vivo tumor growth assay, A121 xenograft in SCID mice. Conditions: for antitumor effect (in words): human ovarian tumor xenograft (pgp−) A121, SCID mice; for Tumor free mice/Group: no palpable tumor on day 197; for Tumor free mice/Group / Days to 600 mm^3 Median / Growth Delay / Toxicity: number of animals who either died or lost greater than 20% body weight: A121; for Days to 600 mm^3 Median / Growth Delay / Toxicity: number of animals who either died or lost greater than 20% body weight: SCID mice. On the procedure:
as §1, §2, §3
Background: In xenograft studies the graft and the host belong to different species.

In data set [3] the test system is human breast cancer cell line MCF7-MDR. Particulars: drug-resistant, MDR phenotype; cited from earlier work.
The subject of data set [4] is Madison 109 subcutaneous lung tumor. Conditions: cited from earlier work.
The conditions of data set [5]: cited from earlier work.
[6] abbreviates: total dose 75 mg/kg (25 mg/kg/inj) i.v. day 5, 8 and 11.
Setting [7] is: total dose 75 mg/kg (25 mg/kg/inj) i.v.
Setting [8] is: total dose 150 mg/kg (50 mg/kg/inj) i.v. day 5, 8 and 11.
Where [9] appears, read: total dose 150 mg/kg (50 mg/kg/inj) i.v.
Where [10] appears, read: total dose 90 mg/kg (30 mg/kg/inj) i.v.
[11] abbreviates: total dose 240 mg/kg (80 mg/kg/inj) i.v. day 5, 8 and 11.
Where [12] appears, read: total dose 240 mg/kg (80 mg/kg/inj) i.v.
Setting [13] is: total dose 60 mg/kg (20 mg/kg/inj) i.v.

Turning to `CC/C=C\C/C=C\C/C=C\C/C=C\C/C=C\C/C=C/CCC(=O)O[C@@H](C(=O)O[C@H]1C[C@@]2(O)[C@@H](OC(=O)c3ccccc3)C3[C@]4(OC(C)=O)COC4C[C@H](O)[C@@]3(C)C(=O)[C@H](O)C(=C1C)C2(C)C)[C@@H](NC(=O)OC(C)(C)C)c1ccccc1` (some centres unmarked) [DHA-Docetaxel, reference compound], the “Days to 600 mm^3 Median” value in data set [1] (setting [6]) worked out at 31 days. In addition, in data set [1] (setting [7]), the “Growth Delay” value amounted to 17 days, the “Toxicity: number of animals who either died or lost greater than 20% body weight” value is listed as 0 and the “Tumor free mice/Group” value is recorded as 0/4. The “Days to 600 mm^3 Median” value in data set [1] (setting [8]) is listed as 48 days. For the same compound, in data set [1] (setting [9]), the “Growth Delay” value came out at 34 days, the “Toxicity: number of animals who either died or lost greater than 20% body weight” value is 0 and the “Tumor free mice/Group” value is 0/4.
For `CC/C=C\C/C=C\C/C=C\C/C=C\C/C=C\C/C=C/CCC(=O)O[C@@H](C(=O)O[C@H]1C[C@@]2(O)[C@@H](OC(=O)c3ccccc3)C3[C@](C)(C(=O)[C@H](OC(=O)CC)C(=C1C)C2(C)C)[C@@H](O)C[C@H]1OC[C@@]31OC(C)=O)[C@H](CC(C)C)NC(=O)OC(C)(C)C` (some centres unmarked) [DHA-SB-T-1103, 2′-Docosahexaenoyl-3′-dephenyl-3′-(2-methylpropyl)-10-propanoyldocetaxel], the “Days to 600 mm^3 Median” value in data set [1] (setting [6]) is given as 18 days. In data set [1] (setting [7]), the “Growth Delay” value stood at 4 days and the “Tumor free mice/Group” value was 0/5.
With `CC/C=C\C/C=C\C/C=C\C/C=C\C/C=C\C/C=C/CCC(=O)O[C@@H](C(=O)O[C@H]1C[C@@]2(O)[C@@H](OC(=O)c3ccccc3)C3[C@](C)(C(=O)[C@H](OC(=O)N(C)C)C(=C1C)C2(C)C)[C@@H](O)C[C@H]1OC[C@@]31OC(C)=O)[C@H](C=C(C)C)NC(=O)OC(C)(C)C` (some centres unmarked) [DHA-SB-T-1216], the “antitumor effect (in words)” value in data set [2] was “effective tumor growth delay”. Further, in data set [2] (setting [10]), the “Tumor free mice/Group” value was 1/5, the “Days to 600 mm^3 Median” value is listed as above 197 days, the “Growth Delay” value is reported as above 186 days and the “Toxicity: number of animals who either died or lost greater than 20% body weight” value is 4.
Take `CC/C=C\C/C=C\C/C=C\C/C=C\C/C=C\C/C=C/CCC(=O)O[C@@H](C(=O)O[C@H]1C[C@@]2(O)[C@@H](OC(=O)c3ccccc3)C3[C@](C)(C(=O)[C@H](OC(=O)CC)C(=C1C)C2(C)C)[C@@H](O)C[C@H]1OC[C@@]31OC(C)=O)[C@H](C=C(C)C)NC(=O)OC(C)(C)C` (some centres unmarked) [DHA-SB-T-1213, 2′-Docosahexaenoyl-3′-dephenyl-3′-(2-methyl-1-propenyl)-10-propanoyldocetaxel]: the “Days to 600 mm^3 Median” value in data set [1] (setting [6]) came to 68 days. Further, in data set [1] (setting [7]), the “Growth Delay” value worked out at 54 days and the “Tumor free mice/Group” value is 0/5. Besides, in data set [2], the “antitumor effect (in words)” value is recorded as “excellent results”. In data set [2] (setting [10]), the “Tumor free mice/Group” value was 4/5, the “Days to 600 mm^3 Median” value was above 197 days and the “Growth Delay” value is above 186 days.
Take `CC/C=C\C/C=C\C/C=C\C/C=C\C/C=C\C/C=C\CCC(=O)O[C@@H](C(=O)O[C@H]1C[C@@]2(O)[C@@H](OC(=O)c3ccccc3)[C@@H]3[C@]4(OC(C)=O)CO[C@@H]4C[C@H](O)[C@@]3(C)C(=O)[C@H](OC(=O)C3CC3)C(=C1C)C2(C)C)[C@H](C=C(C)C)NC(=O)OC(C)(C)C` [DHA-SB-T-1214, 2′-Docosahexaenoyl-3′-dephenyl-3′-(2-methyl-1-propenyl)-10-cyclopropanecarbonyldocetaxel]: in data set [1] (day 201, DLD-1, SCID mice), the survival of mice entry is “all mice were alive on day 201” and the “tumor detected in treated mice” value is “no trace of tumor was detected”. The “antitumor effect (in words)” value in data set [1] (drug-resistant human colon tumor xenografts in SCID mice) is “remarkable antitumor effect”. The “Days to 600 mm^3 Median” value in data set [1] (setting [11]) was above 201 days. For the same compound, in data set [1] (setting [12]), the “Growth Delay” value was above 187 days, the “Toxicity: number of animals who either died or lost greater than 20% body weight” value is listed as 0 and the “Tumor free mice/Group” value is reported as 5/5.
As to `CC(=O)O[C@H]1C(=O)[C@@]2(C)[C@H]([C@H](OC(=O)c3ccccc3)[C@]3(O)C[C@H](OC(=O)[C@H](O)[C@@H](NC(=O)c4ccccc4)c4ccccc4)C(C)=C1C3(C)C)[C@]1(OC(C)=O)CO[C@@H]1C[C@@H]2O` [Paclitaxel, reference compound], in data set [3], the IC50 was 300 to 800 nM. Further, the “Days to 600 mm^3 Median” value in data set [1] (total dose 60 mg/kg (20 mg/kg/inj) i.v. day 5, 8 and 11) is listed as 22 days. Moreover, in data set [1] (setting [13]), the “Growth Delay” value was 8 days, the “Toxicity: number of animals who either died or lost greater than 20% body weight” value turned out to be 0 and the “Tumor free mice/Group” value is 0/3. Also, in data set [2] (setting [13]), the “Tumor free mice/Group” value is 0/5, the “Days to 600 mm^3 Median” value turned out to be 94 days, the “Growth Delay” value came out at 83 days and the “Toxicity: number of animals who either died or lost greater than 20% body weight” value amounted to 0. Also, the “regression of the tumors” value in data set [4] (optimum dose of 20 mg/kg, mice) is given as “neither complete nor partial regression”.
Take `CC/C=C\C/C=C\C/C=C\C/C=C\C/C=C\C/C=C\CCC(=O)O[C@@H](C(=O)O[C@@H]1C(C)=C2[C@@H](OC(C)=O)C(=O)[C@@]3(C)[C@H]([C@H](OC(=O)c4ccccc4)[C@@]4(OC(=O)O[C@@H]14)C2(C)C)[C@]1(OC(C)=O)CO[C@@H]1C[C@@H]3O)[C@H](CC(C)C)NC(=O)OC(C)(C)C` [DHA-IDN-5109, 2′-Docosahexaenoyl-3′-dephenyl-3′-(2-methylpropyl)-10-acetyldocetaxel-1,14-carbonate]: in data set [1] (setting [8]), the “Days to 600 mm^3 Median” value was 14 days. In addition, in data set [1] (setting [9]), the “Growth Delay” value is recorded as 0 days, the “Toxicity: number of animals who either died or lost greater than 20% body weight” value is listed as 0 and the “Tumor free mice/Group” value is given as 0/5.
In the case of `CC/C=C\C/C=C\C/C=C\C/C=C\C/C=C\C/C=C/CCC(=O)O[C@@H](C(=O)O[C@H]1C[C@@]2(O)[C@@H](OC(=O)c3ccccc3)C3[C@](C)(C(=O)[C@H](OC(C)=O)C(=C1C)C2(C)C)[C@@H](O)C[C@H]1OC[C@@]31OC(C)=O)[C@@H](NC(=O)c1ccccc1)c1ccccc1` (some centres unmarked) [DHA-Paclitaxel, reference compound], the “Days to 600 mm^3 Median” value in data set [1] (setting [11]) was found to be 18 days. Further, in data set [1] (setting [12]), the “Growth Delay” value came to 4 days, the “Toxicity: number of animals who either died or lost greater than 20% body weight” value turned out to be 0 and the “Tumor free mice/Group” value is listed as 0/5. Further, the “lower clearance rate than paclitaxel” value in data set [5] (mice) is reported as 94 fold. Besides, the stability in plasma result in data set [5] (plasma) is listed as “stable in plasma”. In data set [2] (setting [12]), the “Tumor free mice/Group” value is reported as 2/5, the “Days to 600 mm^3 Median” value is on record as 197 days, the “Growth Delay” value was 186 days and the “Toxicity: number of animals who either died or lost greater than 20% body weight” value came out at 0. Also, the “duration of sustained regression” value in data set [4] (optimum dose of 120 mg/kg, all mice) is “sixty”. Further, in data set [4] (optimum dose of 120 mg/kg, mice), the “regression of lung tumor xenografts” value was “complete regression”.
Regarding `CC/C=C\C/C=C\C/C=C\C/C=C\C/C=C\C/C=C/CCC(=O)O[C@@H](C(=O)O[C@H]1C[C@@]2(O)[C@@H](OC(=O)c3ccccc3)C3[C@](C)(C(=O)[C@H](OC(=O)C4CC4)C(=C1C)C2(C)C)[C@@H](O)C[C@H]1OC[C@@]31OC(C)=O)[C@H](CC(C)C)NC(=O)OC(C)(C)C` (some centres unmarked) [DHA-SB-T-1104, 2′-Docosahexaenoyl-3′-dephenyl-3′-(2-methyl-1-propyl)-10-cyclopropanecarbonyldocetaxel], the “Days to 600 mm^3 Median” value in data set [1] (setting [11]) is on record as 18 days. Further, in data set [1] (setting [12]), the “Growth Delay” value is listed as 4 days, the “Toxicity: number of animals who either died or lost greater than 20% body weight” value was determined as 0 and the “Tumor free mice/Group” value is listed as 0/5. Further, the “antitumor effect (in words)” value in data set [2] is recorded as “effective tumor growth delay”. In addition, in data set [2] (setting [12]), the “Tumor free mice/Group” value is 0/5, the “Days to 600 mm^3 Median” value turned out to be 126 days, the “Growth Delay” value is 115 days and the “Toxicity: number of animals who either died or lost greater than 20% body weight” value is listed as 0.

For orientation: IC50 means the concentration that gives 50% inhibition.
